Source: patent US12186424B2, “Compositions and methods for treating pterygium recurrence” (Cloudbreak Therapeutics, LLC, priority 2015, dated 2025)
Entries after “also recorded” stand apart in the source; their conditions may differ.

Experiments:
[1] = tested on: corneal neovascularization (NV); test: Human pterygium mouse model, corneal neovascularization score; assay type: in vivo, athymic nude mice; conditions: vs day 7 baseline, score 0 through 3, 0.2% nintedanib, 0.05% sunitinib, 0.002% mitomycin or combination
[2] = tested on: human pterygium epithelial cells (hPECs); test: Human pterygium mouse model, corneal pterygium lesion size; conditions: vs day 7 baseline; 0.2% nintedanib, 0.05% sunitinib, 0.002% mitomycin or combination
Src = Src (Homo sapiens, UniProt P12931); conditions: sources as Table 1 footnote; cited from earlier work
[3] = rabbit, in vivo
[4] = tested on: suture-induced neovascularization in the rabbit cornea; test: Rabbit cornea suture model of neovascularization; assay type: in vivo
Method: The rabbit cornea suture model was established to assess drug effects on cornea neovascularization (Ko et al. Cornea. 2013; 32(5): 689-695; Perez-Santonj a et al. Am J Ophthalmol. 2010; 150(4):519-528). […] Thirty six female Zealand White rabbits were used to perform the study. […] The animals were treated in both eyes as described in Table 4. [table] During the study, the animals were closely observed for various ocular indications as well as general physical conditions including body weight. […] NIH ImageJ® software was used to analyze the ocular images. Each image was opened in ImageJ®, the scale was calibrated using the ruler in the photograph and the neovascularized area on the cornea near the suture was selected by the selection tool. […] The results were plotted as histograms of average with standard deviation for easy comparison.

[5] = rabbits with corneal sutures dosed with sunitinib for 7 days (Perez-Santonja 2010); cited from earlier work
[6] = 0.05% TID topical, Day 10 (after 2 days of treatment)
[7] = 0.05% TID topical, Day 12 (after 4 days of treatment)
[8] = 0.05% TID topical, Day 14 (after 6 days of treatment)
[9] = 0.05% BID topical, Day 10 (after 2 days of treatment)
[10] = 0.05% BID topical, Day 12 (after 4 days of treatment)
[11] = 0.05% BID topical, Day 14 (after 6 days of treatment)
[12] = 0.2% BID topical, Day 10 (after 2 days of treatment)
[13] = 0.2% BID topical, Day 12 (after 4 days of treatment)
[14] = 0.2% BID topical, Day 14 (after 6 days of treatment)
[15] = 0.2% TID topical, Day 10 (after 2 days of treatment)
[16] = 0.2% TID topical, Day 12 (after 4 days of treatment)
[17] = 0.2% TID topical, Day 14 (after 6 days of treatment)

Chain of Src (P12931 whole entry, species assumed): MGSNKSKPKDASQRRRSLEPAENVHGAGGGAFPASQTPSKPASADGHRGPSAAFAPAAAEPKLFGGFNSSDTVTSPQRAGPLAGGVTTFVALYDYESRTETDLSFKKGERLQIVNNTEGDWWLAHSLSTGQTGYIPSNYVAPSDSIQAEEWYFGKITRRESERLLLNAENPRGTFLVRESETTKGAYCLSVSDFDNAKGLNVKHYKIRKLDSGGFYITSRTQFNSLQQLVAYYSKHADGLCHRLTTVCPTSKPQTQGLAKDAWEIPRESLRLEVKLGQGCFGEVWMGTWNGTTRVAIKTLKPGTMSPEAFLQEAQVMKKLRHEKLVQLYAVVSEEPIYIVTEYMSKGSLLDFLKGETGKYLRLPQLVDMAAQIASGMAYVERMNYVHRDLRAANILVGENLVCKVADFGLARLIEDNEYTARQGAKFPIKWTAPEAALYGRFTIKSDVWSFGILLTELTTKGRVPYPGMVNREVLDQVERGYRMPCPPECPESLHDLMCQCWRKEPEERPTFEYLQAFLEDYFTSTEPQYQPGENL

CO[C@@]12[C@H](COC(N)=O)C3=C(C(=O)C(C)=C(N)C3=O)N1C[C@@H]1N[C@@H]12 [MMC]
Effect on corneal neovascularization score (in words) ([1]; listed as Mitomycin): reduced neovascularization score, with significant reductions on day 17
Effect on corneal neovascularization score (in words) ([1]; listed as mitomycin): reduced the neovascularization on cornea and the reduction was significant comparing levels on day 17 vs the baseline on day 7
Effect on pterygium lesion area on mouse cornea (in words) [2]: showed a trend of reduction in pterygium areas but didn't reach statistical significance at any of the time points; also recorded: showed a trend of reduction of pterygium lesion area but the differences at each time points from the day 7 baseline are not statistically significant

COc1cc2c(Oc3ccc4[nH]c(C)cc4c3F)ncnc2cc1OCCCN1CCCC1 [Cediranib]
IC50 (Src): 0.13 µM

CCN(CC)CCNC(=O)c1c(C)[nH]c(/C=C2\C(=O)Nc3ccc(F)cc32)c1C [Sunitinib]
Potential toxicity: abnormal lens with incomplete lenticular opacity [3]: abnormal lens with incomplete lenticular opacity was observed in one rabbit
Neovascular Area [4, 6]: 3.58 mm^2
Neovascular Area Mean Percent Change over Day 7 Baseline (− sign indicates decrease) [4, 6]: 10.80%
Neovascular Area [4, 7]: 4.62 mm^2
Neovascular Area Mean Percent Change over Day 7 Baseline (− sign indicates decrease) [4, 7]: 49.72%
Neovascular Area [4, 8]: 5.96 mm^2
Neovascular Area Mean Percent Change over Day 7 Baseline (− sign indicates decrease) [4, 8]: 98.38%
Anterior chamber cellular reaction [5]: an anterior chamber cellular reaction was observed on day 1
Iris surface staining (drug deposits) [5]: Iris surface yellowish staining, which represents sunitinib deposits on the iris surface was observed during the whole dosing period

COC(=O)c1ccc2c(c1)NC(=O)/C2=C(\Nc1ccc(N(C)C(=O)CN2CCN(C)CC2)cc1)c1ccccc1 [Nintedanib, Methyl (3Z)-3-{[(4-{methyl[(4-methylpiperazin-1-yl)acetyl]amino}phenyl)amino] (phenyl)methylidene}-2-oxo-2,3-dihydro-1H-indole-6-carboxylate]
Effect on corneal neovascularization score (in words) [1]: reduced neovascularization score on the cornea during the treatments with the level on day 17 showing a significant difference from the baseline on day 7
Effect on corneal neovascularization score (in words) ([1]; listed as nintedanib): reduced the neovascularization on cornea and the reduction was significant comparing levels on day 17 vs the baseline on day 7
Potential toxicity: abnormal lens with incomplete lenticular opacity [3]: none was observed
Effect on pterygium lesion area on mouse cornea (in words) [2]: led to a reduction of the pterygium area on day 14 and day 17 in comparison to the baseline level on day 7; also recorded: reduced pterygium lesion area on mouse cornea
Neovascular Area [4, 9]: 5.97 mm^2
Neovascular Area Mean Percent Change over Day 7 Baseline (− sign indicates decrease) [4, 9]: 64.08%
Neovascular Area [4, 10]: 5.03 mm^2
Neovascular Area Mean Percent Change over Day 7 Baseline (− sign indicates decrease) [4, 10]: 45.56%
Neovascular Area [4, 11]: 7.20 mm^2
Neovascular Area Mean Percent Change over Day 7 Baseline (− sign indicates decrease) [4, 11]: 99.48%
Neovascular Area [4, 6]: 3.23 mm^2
Neovascular Area Mean Percent Change over Day 7 Baseline (− sign indicates decrease) [4, 6]: 1.99%
Neovascular Area [4, 7]: 2.14 mm^2
Neovascular Area Mean Percent Change over Day 7 Baseline (− sign indicates decrease) [4, 7]: −27.87%
Neovascular Area [4, 8]: 4.01 mm^2
Neovascular Area Mean Percent Change over Day 7 Baseline (− sign indicates decrease) [4, 8]: 32.66%
Neovascular Area [4, 12]: 3.32 mm^2
Neovascular Area Mean Percent Change over Day 7 Baseline (− sign indicates decrease) [4, 12]: 12.09%
Neovascular Area [4, 13]: 4.15 mm^2
Neovascular Area Mean Percent Change over Day 7 Baseline (− sign indicates decrease) [4, 13]: 37.15%
Neovascular Area [4, 14]: 5.44 mm^2
Neovascular Area Mean Percent Change over Day 7 Baseline (− sign indicates decrease) [4, 14]: 73.51%
Neovascular Area [4, 15]: 2.48 mm^2
Neovascular Area Mean Percent Change over Day 7 Baseline (− sign indicates decrease) [4, 15]: −16.84%
Neovascular Area [4, 16]: 2.56 mm^2
Neovascular Area Mean Percent Change over Day 7 Baseline (− sign indicates decrease) [4, 16]: −13.80%
Neovascular Area [4, 17]: 2.88 mm^2
Neovascular Area Mean Percent Change over Day 7 Baseline (− sign indicates decrease) [4, 17]: −1.51%
Effect on suture-induced neovascularization in the rabbit cornea (in words) ([4]; 0.2% or 0.05% topical, BID or TID, days 8 to 15): marked inhibitory effect on suture-induced neovascularization in the rabbit cornea
